How the values were obtained:
Assay type in all cases: in vivo
[1] = system: corn planthopper (Peregrinus maidis (Ashmead)); test: whole plant or invertebrate; conditions: Peregrinus maidis, 144 h, 6 days; for mortality at 10 ppm: sprayed at 10 ppm; for mortality at 50 ppm: sprayed at 50 ppm; for mortality at 250 ppm: sprayed at 250 ppm
Description: (§1) Test compounds were formulated using a solution containing 10% acetone, […] and 300 ppm Activator 909 non-ionic surfactant (Loveland Products, Loveland, Colorado, USA). The formulated compounds were applied in 1 mL of liquid through an atomizer nozzle positioned 1.27 cm (0.5 inches) above the top of each test unit. Test compounds were sprayed at the rates indicated, and each test was replicated three times.
For evaluating control of corn planthopper (Peregrinus maidis (Ashmead)) through contact and/or systemic means, the test unit consisted of a small open container with a 3-4-day-old corn (maize) plant inside. White sand was added to the top of the soil prior to application of the test compound.
Test compounds were formulated and sprayed at 250 and/or 50 ppm and/or 10 ppm. After spraying of the formulated test compound, the test units were allowed to dry for 1 h before they were post-infested with ˜15-20 nymphs (18-to-21-day-old). A black, screened cap was placed on the top of each test unit, and the test units were held for 6 days in a growth chamber at 22-24° C. and 50-70% relative humidity. Each test unit was then visually assessed for insect mortality.

[2] = system: diamondback moth (Plutella xylostella (L.)); test: Test A: control of diamondback moth on mustard plant, spray; conditions: sprayed at 250 ppm; assessed after 6 days
Description: as §1
For evaluating control of diamondback moth (Plutella xylostella (L.)) the test unit consisted of a small open container with a 12-14-day-old mustard plant inside. This was pre-infested with ˜50 neonate larvae that were dispensed into the test unit via corn cob grits using an inoculator. The larvae moved onto the test plant after being dispensed into the test unit.
Test compounds were formulated and sprayed at 250 ppm. After spraying of the formulated test compound, each test unit was allowed to dry for 1 hour and then a black, screened cap was placed on top. The test units were held for 6 days in a growth chamber at 25° C. and 70% relative humidity. Plant feeding damage was then visually assessed based on foliage consumed, and larvae were assessed for mortality.

[3] = system: green peach aphid (Myzus persicae (Sulzer)); test: Test D: control of green peach aphid on radish plant, spray; conditions: Myzus persicae, 144 h, 6 days; for mortality at 50 ppm: sprayed at 50 ppm; for mortality at 250 ppm: sprayed at 250 ppm
Description: as §1
For evaluating control of green peach aphid (Myzus persicae (Sulzer)) through contact and/or systemic means, the test unit consisted of a small open container with a 12-15-day-old radish plant inside. This was pre-infested by placing on a leaf of the test plant 30-40 aphids on a piece of leaf excised from a culture plant (cut-leaf method). The aphids moved onto the test plant as the leaf piece desiccated. After pre-infestation, the soil of the test unit was covered with a layer of sand.
[…] After spraying of the formulated test compound, each test unit was allowed to dry for 1 hour and then a black, screened cap was placed on top. The test units were held for 6 days in a growth chamber at 19-21° C. and 50-70% relative humidity. Each test unit was then visually assessed for insect mortality.

[4] = system: cotton melon aphid (Aphis gossypii (Glover)); test: whole plant or invertebrate; conditions: Aphis gossypii, 144 h, 6 days; for mortality at 50 ppm: sprayed at 50 ppm; for mortality at 250 ppm: sprayed at 250 ppm
Description: as §1
[…] This was pre-infested with 30-40 insects on a piece of leaf according to the cut-leaf method, and the soil of the test unit was covered with a layer of sand.
Test compounds were formulated and sprayed at 250 and/or 50 ppm. After spraying, the test units were maintained in a growth chamber for 6 days at 19° C. and 70% relative humidity. Each test unit was then visually assessed for insect mortality.

[5] = system: sweetpotato whitefly (Bemisia tabaci (Gennadius)); test: Test F: control of sweetpotato whitefly on cotton plant, spray; conditions: 312 h, 13 days; for mortality at 250 ppm: sprayed at 250 ppm; for mortality at 50 ppm: sprayed at 50 ppm
Description: as §1
For evaluating control of the sweetpotato whitefly (Bemisia tabaci (Gennadius)) through contact and/or systemic means, the test unit consisted of a small open container with a 12-14-day-old cotton plant inside. Prior to the spray application, both cotyledons were removed from the plant, leaving one true leaf for the assay. Adult whiteflies were allowed to lay eggs on the plant and then were removed from the test unit. Cotton plants infested with at least 15 eggs were submitted to the test for spraying.
Test compounds were formulated and sprayed at 250 and/or 50 ppm. After spraying, the test units were allowed to dry for 1 hour. The cylinders were then removed, and the units were taken to a growth chamber and held for 13 days at 28° C. and 50-70% relative humidity. Each test unit was then visually assessed for insect mortality.

Structure (SMILES) | mortality at 10 ppm [1] | mortality at 50 ppm [1] | mortality at 250 ppm [1] | control efficacy (40% or less feeding damage and/or 100% mortality) [2] | mortality at 50 ppm [3] | mortality at 250 ppm [3] | mortality at 50 ppm [4] | mortality at 250 ppm [4] | mortality at 250 ppm [5] | mortality at 50 ppm [5]
COC(c1ccc(SC(F)(F)F)cc1)c1c(Cl)cncc1-n1nccn1 (single isomer, unassigned) [Compound 130] | ≥ 80% | ≥ 80% | ≥ 80% | very good to excellent levels of control efficacy | ≥ 80% | ≥ 80% | ≥ 80% | ≥ 80% | – | –
Fc1cncc(-n2nccn2)c1C(F)c1ccc(SC(F)(F)F)cc1 (stereo not drawn) [Compound 3] | – | ≥ 80% | ≥ 80% | very good to excellent levels of control efficacy | ≥ 80% | ≥ 80% | ≥ 80% | ≥ 80% | ≥ 70% | –
Fc1cncc(-n2cncn2)c1C(F)c1ccc(C(F)(F)F)cc1 (stereo not drawn) [Compound 18] | – | ≥ 80% | ≥ 80% | very good to excellent levels of control efficacy | ≥ 80% | ≥ 80% | – | – | – | –
Fc1cncc(-n2nccn2)c1C(F)c1ccc(C(F)(F)F)cc1 (stereo not drawn) [Compound 20] | – | ≥ 80% | ≥ 80% | very good to excellent levels of control efficacy | ≥ 80% | ≥ 80% | ≥ 80% | ≥ 80% | – | –
Fc1cncc(-c2ccco2)c1C(F)c1ccc(OC(F)(F)F)cc1 (stereo not drawn) [Compound 22] | ≥ 80% | ≥ 80% | ≥ 80% | very good to excellent levels of control efficacy | – | ≥ 80% | ≥ 80% | ≥ 80% | – | –
Fc1cncc(-c2ccoc2)c1C(F)c1ccc(OC(F)(F)F)cc1 (stereo not drawn) [Compound 23] | – | ≥ 80% | ≥ 80% | very good to excellent levels of control efficacy | – | ≥ 80% | – | – | – | –
Fc1cncc(-c2nnco2)c1C(F)c1ccc(OC(F)(F)F)cc1 (stereo not drawn) [Compound 30] | ≥ 80% | ≥ 80% | ≥ 80% | very good to excellent levels of control efficacy | – | ≥ 80% | – | – | – | –
Fc1cncc(-c2cnco2)c1C(F)c1ccc(OC(F)(F)F)cc1 (stereo not drawn) [Compound 34] | – | ≥ 80% | ≥ 80% | very good to excellent levels of control efficacy | ≥ 80% | ≥ 80% | ≥ 80% | ≥ 80% | – | –
N#Cc1cncc(-n2nccn2)c1C(F)c1ccc(OC(F)(F)F)cc1 (stereo not drawn) [Compound 48] | ≥ 80% | ≥ 80% | – | very good to excellent levels of control efficacy | ≥ 80% | ≥ 80% | – | – | – | –
Fc1cncc(-c2ncco2)c1C(F)c1ccc(SC(F)(F)F)cc1 (stereo not drawn) [Compound 78] | ≥ 80% | ≥ 80% | ≥ 80% | very good to excellent levels of control efficacy | ≥ 80% | ≥ 80% | ≥ 80% | ≥ 80% | ≥ 70% | ≥ 70%
FC(c1ccc(SC(F)(F)F)cc1)c1c(Cl)cncc1-n1nccn1 (stereo not drawn) [Compound 89] | ≥ 80% | ≥ 80% | ≥ 80% | very good to excellent levels of control efficacy | ≥ 80% | ≥ 80% | ≥ 80% | ≥ 80% | ≥ 70% | ≥ 70%
Fc1cncc(-n2nccn2)c1C(F)c1ccc(Br)cc1 (stereo not drawn) [Compound 92] | ≥ 80% | ≥ 80% | ≥ 80% | very good to excellent levels of control efficacy | – | – | ≥ 80% | ≥ 80% | ≥ 70% | ≥ 70%
FC(c1ccc(SC(F)(F)F)cc1)c1c(Cl)cncc1-c1cnco1 (stereo not drawn) [Compound 105] | – | ≥ 80% | ≥ 80% | very good to excellent levels of control efficacy | – | – | ≥ 80% | ≥ 80% | – | –
COC(c1ccc(SC(F)F)cc1)c1c(F)cncc1-n1nccn1 (stereo not drawn) [Compound 118] | – | – | – | very good to excellent levels of control efficacy | ≥ 80% | ≥ 80% | ≥ 80% | ≥ 80% | ≥ 70% | ≥ 70%
COC(c1ccc(SC(F)(F)F)cc1)c1c(I)cncc1-n1nccn1 (stereo not drawn) [Compound 120] | – | ≥ 80% | ≥ 80% | very good to excellent levels of control efficacy | – | – | – | – | ≥ 70% | ≥ 70%
COC(c1ccc(SC(F)(F)F)cc1)c1c(F)cncc1-n1nccn1 (stereo not drawn) [Compound 123] | ≥ 80% | ≥ 80% | ≥ 80% | very good to excellent levels of control efficacy | ≥ 80% | ≥ 80% | ≥ 80% | ≥ 80% | ≥ 70% | ≥ 70%
CO[C@H](c1ccc(OC(F)(F)F)cc1)c1c(F)cncc1-n1nccn1 [Compound 125, 3-fluoro-4-[(R)-methoxy-[4-(trifluoromethoxy)phenyl]methyl]-5-(triazol-2 yl)pyridine] | ≥ 80% | ≥ 80% | ≥ 80% | very good to excellent levels of control efficacy | ≥ 80% | ≥ 80% | ≥ 80% | ≥ 80% | ≥ 70% | ≥ 70%
COC(c1ccc(SC(F)(F)F)cc1)c1c(Br)cncc1-n1nccn1 (stereo not drawn) [Compound 133] | – | – | – | very good to excellent levels of control efficacy | – | – | ≥ 80% | ≥ 80% | ≥ 70% | ≥ 70%

— patent US12568969B2, “Pyridine compounds for controlling invertebrate pests” (FMC Corporation, priority 2020, dated 2026)
